Values quoted from earlier work in patent US20210069174A1, “COMPOSITIONS AND METHODS FOR TREATMENT OF CYSTIC FIBROSIS” (Vertex Pharmaceuticals Incorporated, priority 2017, published 2021).

Test system: CFTR
Conditions: CFTR modulator; disclosed in PCT Publication No. WO 2016/057572

## CC(C)COc1cc(F)cc(-c2ccc(C(=O)NS(=O)(=O)c3ccccc3)c(N3C[C@@H](C)CC3(C)C)n2)c1 [Compound I, N-(benzenesulfonyl)-6-(3-fluoro-5-isobutoxy-phenyl)-2-[(4S)-2,2,4-trimethylpyrrolidin-1-yl]pyridine-3-carboxamide]
  EC30: < 3 µM
